Results reported in patent publication EP4782431A1 (Suzhou Merna Therapeutics Co. Ltd, priority 2023, dated 2025).

Tests used:
THP-1 cells = assay: m6A methylation level of THP-1 cells (LC-MS); type: cell-based; conditions: 24 hours
Description: 1*10^8 THP-1 cells were seeded in culture dishes, into which 4 nM and 400 nM compound of formula (I), 4 nM and 4 µM nicotinamide, and 5 µM m6A methyltransferase inhibitor UZH2 were added, respectively. The cells were cultured in an incubator containing 5% CO2 at 37°C for 24 hours. After discarding culture media and washing with PBS, the cells were centrifuged, and the supernatant was discarded. 400 µL of an RLT cell lysis buffer was added, and the cells were stored at -80°C. A portion of samples were selected, into which 400 µL of 70% ethanol was added and evenly stirred. 700 µL of a sample was transferred to an RNeasy centrifugation column and centrifuged for 15 seconds (8,000 g, 25°C). Then, 700 µL of an RW1 buffer solution was added and centrifuged for 15 seconds (8,000 g, 25°C), followed by the addition of 500 µL of an RPE buffer solution and centrifugation for 16 seconds (8,000 g, 25°C). The above steps were repeated twice, followed by centrifugation for 2 minutes to completely remove the eluent. 30 µL of nuclease-free water was added to a chromatographic column, and the cells were incubated for 5 minutes and then centrifuged for 2 minutes (12,000 g, 25°C). The steps were repeated 3 times. 2 µL of an RNA sample was selected and dissolved in 98 µL of a 10 mM Tris buffer solution, and the absorbance at 260 nm was measured using a Nanodrop to determine the RNA concentration.
50 µg of total RNA was selected and dissolved in 100 µL of nuclease-free water. Oligo (dT) magnetic beads were resuspended, 50 µL of the magnetic beads were transferred to a 1.5 mL test tube, 500 µL of a binding buffer solution was added, the mixture was allowed to stand, and the supernatant was removed. 100 µL of an RNA sample was added to 200 µL of a magnetic bead suspension for mixing, the mixture was stirred and incubated in a Thermomixer at 25°C for 5 minutes, the supernatant was discarded, and then 200 µL of a washing buffer solution was added. The steps were repeated 2 times, and then centrifugation was performed for 10 seconds (2,000 g, 25°C). 50 µL of an elution buffer solution was added and evenly mixed, the mixture was heated to 75°C, the supernatant was transferred to a new 1.5 mL test tube and purified using an RNA Clean & Concentrator kit, and the RNA concentration was determined.
20 µL (approximately 200 ng) of an mRNA sample and 20 µL of a Nuclease P1 digestion premix (including 0.5 µL of 2 unit/µL Nuclease P1, 0.4 µL of 5 M NaCl, 2 µL of 0.1 M ZnCl2, and 17.1 µL of PCR-grade water) were added into each test tube, and the mixture was stirred and incubated in a Thermomixer at 37°C for 2 hours. […] 20 µL of the supernatant was collected, an m6A methylation fragment was analyzed by LC-MS, and the m6A inhibition rate was calculated. […]

[1] = test system: keratinocyte differentiation markers KRT1, KRT10, Loricrin, and Involucrin; assay: inhibition of HBEGF-induced differentiation of HaCaT keratinocytes (RT-PCR); type: cell-based; conditions: with 2.5 ng/mL recombinant human HBEGF protein, 24 hours
Description: Human HaCaT keratinocytes were cultured in DMEM culture medium containing 10% fetal bovine serum, 100 U/mL penicillin, and 100 µg/mL streptomycin. The cells were seeded into a 96-well plate at a density of […] and placed in an incubator containing 5% carbon dioxide for culture at 37°C for 24 hours. An equal volume of DMSO was added into control well 1, a 2.5 ng/mL recombinant human HBEGF protein (Abcam, ab205523) was added into control well 2, and a 2.5 ng/mL recombinant human HBEGF protein and corresponding concentrations of test compounds were added into sample wells. The cells were continuously cultured for 24 hours, washed with PBS, and then collected by high-speed centrifugation. Total RNA was extracted using Trizol reagent (Sigma Aldrich). 1 µg of RNA was reverse-transcribed into cDNA using a cDNA reverse transcription kit (Transgene Biotech, AT311-03). 1.25 µL of a primer (with a primer sequence shown in Table 2), 10 µL of an iTag Universal SYBR Green supermix (Bio-Rad, 172-5125), and an appropriate amount of DEPC ultrapure water were added to formulate 20 µL of a reaction solution to perform an RT-PCR reaction. Upon completion of the reaction, the reaction solution was subjected to agarose gel electrophoresis to determine the mRNA expression level of keratinocyte differentiation markers KRT1, KRT10, Loricrin, and Involucrin. […]

| SMILES | inhibitory effect on the m6A methylation level of mRNA of the cells (THP-1 cells; high concentration (4 µM)) | inhibitory effect on the m6A methylation level of mRNA of the cells (THP-1 cells; low concentration (4 nM)) | m6A methylation level of mRNA of the cells (THP-1 cells; 4 nM and 400 nM, concentration-dependent) | m6A inhibition activity (THP-1 cells; 400 nM) | mRNA expression level of the HaCaT differentiation markers KRT1, KRT10, Loricrin, and Involucrin [1] |
| --- | --- | --- | --- | --- | --- |
| NC(=O)c1cccnc1 [Nicotinamide, nicotinamide] | no inhibitory effect | no inhibitory effect | – | – | – |
| NC(=O)[C@H]1CCCc2c1[nH]c1ccc(Cl)cc21 [Compound of formula (I), (S)-6-chloro-2,3,4,9-tetrahydro-1H-carbazole-carboxamide] | – | – | significantly inhibit | comparable to that of the m6A methyltransferase inhibitor UZH2 at a concentration of 5 µM | significantly inhibited |
